Earlier results on 4 compounds are cited in patent publication US20090104212A1, “METHODS AND SYSTEMS FOR TREATING CELL PROLIFERATION DISORDERS USING TWO-PHOTON SIMULTANEOUS ABSORPTION” (Immunolight, priority 2007, published 2009).

SMILES strings stand for the structures. Where two headings read alike, the source gives them in different places. Non-standard residues stand in square brackets, D forms with d. Residues, ends and D or L forms follow the SMILES beside them. Bpa = N[CH](Cc1ccc(C(=O)c2ccccc2)cc1)C(=O)O; 2Nal = N[CH](Cc1ccc2ccccc2c1)C(=O)O; Aib = CC(C)(N)C(=O)O

The conditions of series [1]: for kSET (Average): average over Λex 224, 266, 280 nm.
Series [2] deals with tumors. The note with it: in vivo.

Take `CC(NC(=O)C(C)(C)NC(=O)C(Cc1ccc(C(=O)c2ccccc2)cc1)NC(=O)C(C)(C)NC(=O)C(C)NC(=O)C(C)(C)NC(=O)C(Cc1ccc2ccccc2c1)NC(=O)C(C)(C)N)C(=O)O` (centres unmarked) [Compound 1B] (H-[Aib][2Nal][Aib]A[Aib][Bpa][Aib]A-OH; configuration not given here): the ESSET in series [1] (Λex 224 nm) is 96.3; in series [1] (Λex 266 nm), 95; in series [1] (Λex 280 nm), 94. Moreover, the figures for the kSET in series [1] (Λex 224 nm), in series [1] (Λex 266 nm) and in series [1] (Λex 280 nm) were 2.44e+08 s⁻¹, 1.8e+08 s⁻¹ and 1.36e+08 s⁻¹, respectively.
On to `CC(NC(=O)C(C)(C)NC(=O)C(Cc1ccc(C(=O)c2ccccc2)cc1)NC(=O)C(C)(C)NC(=O)C(Cc1ccc2ccccc2c1)NC(=O)C(C)(C)NC(=O)C(C)NC(=O)C(C)(C)N)C(=O)O` (single isomer, unassigned) [Compound 2B], for which the “kSET (Average)” value in series [1] was 3.9e+07 s⁻¹. Further, the ESSET in series [1] (Λex 224 nm) is listed as 77; in series [1] (Λex 266 nm) it was 81; in series [1] (Λex 280 nm), 83. Further, the kSET in series [1] (Λex 224 nm) was 3.1e+07 s⁻¹; in series [1] (Λex 266 nm) it was 3.9e+07 s⁻¹; in series [1] (Λex 280 nm) it was 4.7e+07 s⁻¹.
As to `CC1NC(=O)C(C)(C)NC(=O)C(Cc2ccc(C(=O)c3ccccc3)cc2)NC(=O)C(C)(C)NC(=O)C(C)NC(=O)C(C)(C)NC(=O)C(Cc2ccc3ccccc3c2)NC(=O)C(C)(C)NC1=O` (centres unmarked) [Compound 1A] (cyclo([Aib][2Nal][Aib]A[Aib][Bpa][Aib]A); configuration not given here), the “kSET (Average)” value in series [1] was 3.67e+07 s⁻¹. Further, the ESSET in series [1] (Λex 224 nm) is recorded as 80; in series [1] (Λex 266 nm), 79; in series [1] (Λex 280 nm), 79. Besides, the results for the kSET in series [1] (Λex 224 nm), in series [1] (Λex 266 nm) and in series [1] (Λex 280 nm) were 3.8e+07 s⁻¹, 3.6e+07 s⁻¹ and 3.6e+07 s⁻¹, respectively.
In the case of `CC(=O)[O-].CC(=O)[O-].CCc1c(CC)c2cc3nc(cnc4cc(OCCOCCOCCOC)c(OCCOCCOCCOC)cc4ncc4nc(cc1[n-]2)C(CCCO)=C4C)C(C)=C3CCCO.O.[Lu+3]` [Lutetium texahyrin, Motexafin lutetium], the “duration of skin photosensitivity” value (clinical use) was 24 to 48 h. Besides, the Length of photosensitization (in vivo) was 24 to 48 h. Moreover, the “selectivity for tumors compared to normal tissues” value in series [2] is “one of the greatest reported selectivities for tumors”.
